This assay concerns the target Human recombinant PRMT5 in complex with human recombinant MEP50 (Homo sapiens (Human), UniProt O14744). Description: PRMT5/MEP50 AlphaLISA enzyme inhibitory assay. The assay is classed as biochemical. The conditions noted are these: PRMT5/MEP50 25 nM, SAM 10 μM, Biotin-H4 peptide 30 nM. From the text:
Human recombinant PRMT5 in complex with human recombinant MEP50, co-expressed in an insect cell/baculovirus expression system was purchased from Reaction Biology (Malvern, Pa.). […] Anti-H4R3-Me AlphaLISA acceptor beads and Streptavidin labeled AlphaLISA donor beads were obtained from PerkinElmer (Waltham, Mass.). S-adenosylmethionine (SAM), Tween20, dimethylsulfoxide (DMSO), and Tris buffer were obtained from Sigma at the highest level of purity available.
General Procedure for PRMT5/MEP50 AlphaLISA Enzyme Inhibitory Assays: Assays were performed in the buffer consisting of 50 mM Tris, pH 8.5, 5 mM MgCl2, 50 mM NaCl with 0.01% Tween20 and 1 mM DTT added right before the assay. 2.5 μL of compound solution in the assay buffer with 4% DMSO and 5 μL of PRMT5/MRP50 complex/SAM mixture solution in the assay buffer which was pre-incubated for 30 minutes were added into a white low volume 384 well microtiter plate. This mixture solution was incubated for 15 minutes with gentle shaking at room temperature. Methyl transfer reaction was initiated by adding 2.5 μL of Biotin-H4 (1-21) peptide substrate solution in the assay buffer. Final concentrations of PRMT5/MEP50, SAM, Biotin-H4 peptide substrate, and DMSO were 25 nM, 10 μM, 30 nM, and 1%, respectively. The reaction was allowed to perform for 120 minutes in dark with gentle shaking at room temperature after which 5 μL of Anti-H4R3-Me AlphaLISA acceptor beads in detection buffer from the manufacturer was added into the reaction mixture followed by incubation for 60 minutes. 10 μL of Streptavidin labeled AlphaLISA donor beads in detection buffer was added into the mixture followed by 30 minute incubation. Final acceptor and donor beads concentrations were 10 μg/mL. Plates were read on an Envision multimode plate reader from PerkinElmer (Waltham Mass., USA) with an excitation wavelength of 680 nm and emission wavelength of 615 nm. IC50 values of inhibitors were obtained by fitting the fluorescence intensity vs inhibitor concentrations in a sigmoidal dose-response curve (variable slopes, four parameters) using Prism 7 (La Jolla, Calif.).
In general terms: In Alpha technology, singlet oxygen from a donor bead excites a nearby acceptor bead.

Sequence of Human recombinant PRMT5 in complex with human recombinant MEP50 (O14744 whole entry): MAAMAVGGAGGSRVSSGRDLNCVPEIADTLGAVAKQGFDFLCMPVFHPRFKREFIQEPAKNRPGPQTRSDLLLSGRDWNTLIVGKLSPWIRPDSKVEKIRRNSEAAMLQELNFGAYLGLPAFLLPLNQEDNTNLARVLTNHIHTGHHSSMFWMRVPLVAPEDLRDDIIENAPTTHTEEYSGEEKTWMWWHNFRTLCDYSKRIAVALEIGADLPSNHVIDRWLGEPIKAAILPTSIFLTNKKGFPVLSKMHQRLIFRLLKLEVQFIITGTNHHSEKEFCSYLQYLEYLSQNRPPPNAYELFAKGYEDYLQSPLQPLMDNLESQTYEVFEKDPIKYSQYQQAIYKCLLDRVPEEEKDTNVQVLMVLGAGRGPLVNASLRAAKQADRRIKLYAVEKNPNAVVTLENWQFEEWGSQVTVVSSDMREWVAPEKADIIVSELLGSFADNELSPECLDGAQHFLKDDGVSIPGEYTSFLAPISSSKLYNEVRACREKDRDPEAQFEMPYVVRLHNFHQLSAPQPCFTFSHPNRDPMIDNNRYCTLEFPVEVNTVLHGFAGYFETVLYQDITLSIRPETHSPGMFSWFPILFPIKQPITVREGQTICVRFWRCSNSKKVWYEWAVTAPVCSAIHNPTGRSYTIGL
Sequence of Human recombinant PRMT5 in complex with human recombinant MEP50 (Q9BQA1 whole entry partner): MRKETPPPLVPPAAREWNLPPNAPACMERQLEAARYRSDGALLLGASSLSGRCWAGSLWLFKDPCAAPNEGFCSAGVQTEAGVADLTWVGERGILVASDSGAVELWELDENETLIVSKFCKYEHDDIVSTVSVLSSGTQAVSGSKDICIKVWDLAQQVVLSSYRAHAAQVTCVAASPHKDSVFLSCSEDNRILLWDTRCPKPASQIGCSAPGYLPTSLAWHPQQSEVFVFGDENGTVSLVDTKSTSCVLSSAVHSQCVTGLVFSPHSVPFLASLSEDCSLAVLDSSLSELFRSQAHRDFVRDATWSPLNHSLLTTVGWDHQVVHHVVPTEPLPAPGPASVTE

`CC(=O)N1CCC(Nc2ccc3c(c2F)C(=O)N(CC(O)CN2CCc4ccccc4C2)CCO3)CC1` (centres unmarked) [Compound 46, 7-((1-acetylpiperidin-4-yl)amino)-4-(3-(3,4-dihydroisoquinolin-2(1H)-yl)-2-hydroxypropyl)-6-fluoro-3,4-dihydrobenzo[f][1,4]oxazepin-5(2H)-one]: the IC50 came to 0.138 µM. As for `O=C1c2cc(Nc3ccnnc3)cnc2OCCN1CC(O)CN1CCc2ccccc2C1` (centres unmarked) [Compound 47, 4-(3-(3,4-dihydroisoquinolin-2(1H)-yl)-2-hydroxypropyl)-7-(pyridazin-4-ylamino)-3,4-dihydropyrido[3,2-f][1,4]oxazepin-5(2H)-one], the figure is 0.0563 µM; as for `O=C1c2cc(Nc3ccnnc3)ncc2OCCN1CC(O)CN1CCc2ccccc2C1` (centres unmarked) [Compound 48, 4-(3-(3,4-dihydroisoquinolin-2(1H)-yl)-2-hydroxypropyl)-7-(pyridazin-4-ylamino)-3,4-dihydropyrido[4,3-f][1,4]oxazepin-5(2H)-one], 0.0158 µM; as for `O=C1c2nc(Nc3ccnnc3)ccc2OCCN1CC(O)CN1CCc2ccccc2C1` (centres unmarked) [Compound 49, 4-(3-(3,4-dihydroisoquinolin-2(1H)-yl)-2-hydroxypropyl)-7-(pyridazin-4-ylamino)-3,4-dihydropyrido[2,3-f][1,4]oxazepin-5(2H)-one], 0.69 µM. Consider `O=C1c2cc(Nc3ccnnc3)c(F)cc2OCCN1CC(O)CN1CCc2ccccc2C1` (centres unmarked) [Compound 50, 4-(3-(3,4-dihydroisoquinolin-2(1H)-yl)-2-hydroxypropyl)-8-fluoro-7-(pyridazin-4-ylamino)-3,4-dihydrobenzo[f][1,4]oxazepin-5(2H)-one], for which the IC50 came out at 0.0077 µM. Take `O=C1c2cc(Nc3ccnnc3)cc(F)c2OCCN1CC(O)CN1CCc2ccccc2C1` (centres unmarked) [Compound 51, 4-(3-(3,4-dihydroisoquinolin-2(1H)-yl)-2-hydroxypropyl)-9-fluoro-7-(pyridazin-4-ylamino)-3,4-dihydrobenzo[f][1,4]oxazepin-5(2H)-one]: the IC50 amounted to 0.0065 µM. Consider `CC(=O)N1CC2(CC(Nc3ccc4c(c3)C(=O)N(CC(O)CN3CCc5ccccc5C3)CCO4)C2)C1` (centres unmarked) [Compound 54, 7-((2-acetyl-2-azaspiro[3.3]heptan-6-yl)amino)-4-(3-(3,4-dihydroisoquinolin-2(1H)-yl)-2-hydroxypropyl)-3,4-dihydrobenzo[f][1,4]oxazepin-5(2H)-one], for which the IC50 is 0.138 µM.

Consider `CC(=O)N1C2CCC1CC(Nc1ccc3c(c1)C(=O)N(CC(O)CN1CCc4ccccc4C1)CCO3)C2` (centres unmarked) [Compound 55, 7-((8-acetyl-8-azabicyclo[3.2.1]octan-3-yl)amino)-4-(3-(3,4-dihydroisoquinolin-2(1H)-yl)-2-hydroxypropyl)-3,4-dihydrobenzo[f][1,4]oxazepin-5(2H)-one], for which the IC50 was found to be 0.195 µM. Consider `CC(=O)N1CC2C(C1)C2Nc1ccc2c(c1)C(=O)N(CC(O)CN1CCc3ccccc3C1)CCO2` (centres unmarked) [Compound 56, 7-((3-acetyl-3-azabicyclo[3.1.0]hexan-6-yl)amino)-4-(3-(3,4-dihydroisoquinolin-2(1H)-yl)-2-hydroxypropyl)-3,4-dihydrobenzo[f][1,4]oxazepin-5(2H)-one], for which the IC50 is 1.1 µM. Consider `CC(=O)N1CCC(Nc2ccc3c(c2)C(=O)N(C[C@H](O)CN2CCc4ccccc4C2)C2CC3C2)CC1` [Compound 57a, (R)-8-((1-acetylpiperidin-4-yl)amino)-2-(3-(3,4-dihydroisoquinolin-2(1H)-yl)-2-hydroxypropyl)-2,3,4,5-tetrahydro-1H-3,5-methanobenzo[c]azepin-1-one], for which the IC50 worked out at 0.0925 µM.

Regarding `CC(=O)N1CCC(Nc2ccc3c(c2)C(=O)N(C[C@@H](O)CN2CCc4ccccc4C2)C2CC3C2)CC1` [Compound 57b, (S)-8-((1-acetylpiperidin-4-yl)amino)-2-(3-(3,4-dihydroisoquinolin-2(1H)-yl)-2-hydroxypropyl)-2,3,4,5-tetrahydro-1H-3,5-methanobenzo[c]azepin-1-one], the IC50 worked out at 0.209 µM.

The term IC50 denotes the concentration needed to halve the response being measured.

Source of the values: patent US11591326B2, “Inhibitors of protein arginine methyltransferase 5 (PRMT5), pharmaceutical products thereof, and methods thereof” (PHARMABLOCK SCIENCES (NANJING), INC., priority 2018, dated 2023).
